What all share (type): cell-based
The target in one assay is T1, human TLR7 (Homo sapiens, UniProt Q9NYK1).
T1 construct: host or cells: HEK-Blue cells (HEK293-derived reporter line)
T1 sequence (Q9NYK1 27-1049): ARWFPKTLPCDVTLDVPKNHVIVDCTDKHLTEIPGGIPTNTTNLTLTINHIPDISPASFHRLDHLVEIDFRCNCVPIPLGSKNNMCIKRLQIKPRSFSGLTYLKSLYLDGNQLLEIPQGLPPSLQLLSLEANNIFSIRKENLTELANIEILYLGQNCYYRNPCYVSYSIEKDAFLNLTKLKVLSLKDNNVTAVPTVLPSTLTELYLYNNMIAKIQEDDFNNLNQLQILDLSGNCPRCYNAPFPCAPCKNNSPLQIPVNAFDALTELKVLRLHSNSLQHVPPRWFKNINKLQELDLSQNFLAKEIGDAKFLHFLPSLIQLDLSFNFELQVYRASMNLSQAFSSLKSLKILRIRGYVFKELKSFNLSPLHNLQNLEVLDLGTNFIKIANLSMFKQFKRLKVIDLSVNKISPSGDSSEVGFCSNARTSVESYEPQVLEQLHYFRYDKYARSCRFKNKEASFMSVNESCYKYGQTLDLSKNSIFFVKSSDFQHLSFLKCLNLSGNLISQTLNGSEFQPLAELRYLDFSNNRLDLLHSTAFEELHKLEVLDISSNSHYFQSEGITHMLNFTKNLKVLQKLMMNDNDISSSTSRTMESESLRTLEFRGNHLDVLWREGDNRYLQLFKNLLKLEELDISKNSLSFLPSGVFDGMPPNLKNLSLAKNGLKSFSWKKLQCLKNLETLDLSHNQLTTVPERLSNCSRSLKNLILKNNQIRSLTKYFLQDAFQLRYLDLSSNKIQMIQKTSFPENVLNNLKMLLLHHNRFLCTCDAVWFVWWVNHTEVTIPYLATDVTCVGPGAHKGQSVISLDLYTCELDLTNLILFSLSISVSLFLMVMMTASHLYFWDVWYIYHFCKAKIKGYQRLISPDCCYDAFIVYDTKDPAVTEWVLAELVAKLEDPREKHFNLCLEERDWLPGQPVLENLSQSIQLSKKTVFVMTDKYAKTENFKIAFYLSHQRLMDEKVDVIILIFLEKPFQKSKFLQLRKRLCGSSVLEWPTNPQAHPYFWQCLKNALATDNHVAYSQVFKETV
Description: TLR7 inhibition reporter assay (HEK-Blue cells, SEAP reporter, gardiquimod stimulation). The following applies: HEK-Blue cells overexpressing human TLR7, SEAP reporter, gardiquimod 7.5 μM. Summed up: (§1)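 Percent inhibition of agonist-induced SEAP secretion in HEK-Blue cells after 22 h at 37 °C. Stimuli: 7.5 μM gardiquimod, 15.9 μM R848, 5 nM ODN2006 for TLR7, TLR8 and TLR9, added after 30 min compound exposure over a 0.05 nM–50 μM range.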
On the technique in general: A reporter such as luciferase makes a cellular process visible.

Another assay addresses T2, human TLR8 (Homo sapiens, UniProt Q9NR97).
T2 construct: host or cells: HEK-Blue cells (HEK293-derived reporter line)
T2 sequence (Q9NR97 27-1041): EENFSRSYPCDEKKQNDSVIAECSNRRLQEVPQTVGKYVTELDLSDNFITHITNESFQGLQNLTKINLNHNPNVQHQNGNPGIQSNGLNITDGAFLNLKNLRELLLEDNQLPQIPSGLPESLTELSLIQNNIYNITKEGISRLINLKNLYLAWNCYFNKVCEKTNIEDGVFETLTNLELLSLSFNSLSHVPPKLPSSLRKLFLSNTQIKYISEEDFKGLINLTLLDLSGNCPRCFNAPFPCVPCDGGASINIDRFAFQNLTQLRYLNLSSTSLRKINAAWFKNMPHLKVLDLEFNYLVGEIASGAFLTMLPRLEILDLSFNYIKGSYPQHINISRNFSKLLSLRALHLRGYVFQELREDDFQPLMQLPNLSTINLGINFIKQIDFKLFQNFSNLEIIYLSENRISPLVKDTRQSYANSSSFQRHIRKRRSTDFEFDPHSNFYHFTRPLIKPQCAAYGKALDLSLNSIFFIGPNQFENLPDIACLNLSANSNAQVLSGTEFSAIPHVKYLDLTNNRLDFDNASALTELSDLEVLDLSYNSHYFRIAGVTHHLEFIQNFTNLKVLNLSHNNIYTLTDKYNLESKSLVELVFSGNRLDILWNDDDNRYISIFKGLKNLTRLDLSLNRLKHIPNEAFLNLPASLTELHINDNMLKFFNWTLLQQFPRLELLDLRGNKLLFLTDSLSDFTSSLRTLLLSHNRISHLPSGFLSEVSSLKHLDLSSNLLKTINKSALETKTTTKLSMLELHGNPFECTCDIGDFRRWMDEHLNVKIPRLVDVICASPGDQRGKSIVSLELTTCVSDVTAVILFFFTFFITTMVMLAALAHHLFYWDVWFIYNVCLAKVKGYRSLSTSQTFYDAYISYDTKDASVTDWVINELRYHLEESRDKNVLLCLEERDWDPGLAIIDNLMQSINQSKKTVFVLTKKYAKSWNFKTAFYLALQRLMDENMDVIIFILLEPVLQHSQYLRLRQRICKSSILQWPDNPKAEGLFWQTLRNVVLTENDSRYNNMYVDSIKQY
Description: TLR8 inhibition reporter assay (HEK-Blue cells, SEAP reporter, R848 stimulation). The following applies: HEK-Blue cells overexpressing human TLR8, SEAP reporter, R848 15.9 μM. Summed up: as §1

In the next assay the target is T3, human TLR9 (Homo sapiens, UniProt Q9NR96).
T3 construct: host or cells: HEK-Blue cells (HEK293-derived reporter line)
T3 sequence (Q9NR96 26-1032): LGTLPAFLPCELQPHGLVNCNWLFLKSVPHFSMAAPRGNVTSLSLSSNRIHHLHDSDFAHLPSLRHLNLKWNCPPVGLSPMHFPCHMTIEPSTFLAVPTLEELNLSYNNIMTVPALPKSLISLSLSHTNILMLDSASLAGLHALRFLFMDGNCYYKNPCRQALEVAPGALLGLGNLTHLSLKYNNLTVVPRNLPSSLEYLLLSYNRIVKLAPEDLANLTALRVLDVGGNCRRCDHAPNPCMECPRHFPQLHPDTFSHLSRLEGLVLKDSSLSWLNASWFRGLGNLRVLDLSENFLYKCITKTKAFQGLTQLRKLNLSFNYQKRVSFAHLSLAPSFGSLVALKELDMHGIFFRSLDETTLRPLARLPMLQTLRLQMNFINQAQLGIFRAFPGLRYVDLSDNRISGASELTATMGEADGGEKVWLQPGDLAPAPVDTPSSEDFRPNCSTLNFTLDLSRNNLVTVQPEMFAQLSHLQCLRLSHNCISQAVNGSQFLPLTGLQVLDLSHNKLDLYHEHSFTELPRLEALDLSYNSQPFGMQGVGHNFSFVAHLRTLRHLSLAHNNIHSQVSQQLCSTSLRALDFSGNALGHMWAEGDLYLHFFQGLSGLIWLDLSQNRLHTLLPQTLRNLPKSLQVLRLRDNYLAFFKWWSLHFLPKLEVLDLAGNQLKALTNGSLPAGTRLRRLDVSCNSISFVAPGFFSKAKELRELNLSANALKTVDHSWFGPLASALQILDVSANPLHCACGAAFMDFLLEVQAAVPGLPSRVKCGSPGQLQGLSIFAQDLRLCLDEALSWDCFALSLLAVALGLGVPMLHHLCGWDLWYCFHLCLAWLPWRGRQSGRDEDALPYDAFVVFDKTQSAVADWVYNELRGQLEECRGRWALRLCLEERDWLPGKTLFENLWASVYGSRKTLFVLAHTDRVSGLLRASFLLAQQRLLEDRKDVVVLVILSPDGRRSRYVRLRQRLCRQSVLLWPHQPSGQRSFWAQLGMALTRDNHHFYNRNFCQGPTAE
Description: TLR9 inhibition reporter assay (HEK-Blue cells, SEAP reporter, ODN2006 stimulation). The following applies: HEK-Blue cells overexpressing human TLR9, SEAP reporter, ODN2006 5 nM. The essentials:
as §1

This is an account of results in patent US11739098B2 (BRISTOL-MYERS SQUIBB COMPANY, priority 2017, dated 2023).

Usually IC50 stands for the midpoint of a concentration-inhibition curve. A lower IC50 goes with greater potency in that assay.

Regarding `CC(C)NCC(=O)N1CCC(c2ccc3[nH]c(-c4ccnc5[nH]ncc45)c(C(C)C)c3c2)CC1` [Example 578, 1-(4-(3-isopropyl-2-(1H-pyrazolo[3,4-b]pyridin-4-yl)-1H-indol-5-yl)piperidin-1-yl)-2-(isopropylamino)ethan-1-one], the IC50 on human TLR7 is under 100 nM; against human TLR8, under 100 nM; on human TLR9, 1000 to 50000 nM.

Regarding `Cc1cc(-c2[nH]c3ccc(C4CCN(C5COC5)CC4)cc3c2C(C)C)cc2nccn12` [Example 711, 7-(3-isopropyl-5-(1-(oxetan-3-yl)piperidin-4-yl)-1H-indol-2-yl)-5-methylimidazo[1,2-a]pyridine], the IC50 lay within 100 to 1000 nM on human TLR7, 100 to 1000 nM against human TLR8 and 1000 to 50000 nM at human TLR9.

On to `CC(C)c1c(-c2ccc3nccn3c2)[nH]c2ccc(C3CCNCC3)c(F)c12` [Example 258, 6-(4-fluoro-3-isopropyl-5-(piperidin-4-yl)-1H-indol-2-yl)imidazo[1,2-a]pyridine], for which the IC50 was under 100 nM against human TLR7, under 100 nM against human TLR8 and 100 to 1000 nM at human TLR9.

Consider `Cc1cc2nccn2cc1-c1[nH]c2ccc(C3CCN(C4CCN(C(C)C)CC4)CC3)cc2c1C(C)C` [Example 841, 6-(3-isopropyl-5-(1′-isopropyl-[1,4′-bipiperidin]-4-yl)-1H-indol-2-yl)-7-methylimidazo[1,2-a]pyridine], for which the IC50 against human TLR7, against human TLR8 and against human TLR9 was under 100 nM each time.

Take `CCc1c(-c2ccnc3[nH]ccc23)[nH]c2ccc(C3CCN(C4CCN(CC(C)C)CC4)CC3)cc12` [Example 849, 4-(3-ethyl-5-(1′-isobutyl-[1,4′-bipiperidin]-4-yl)-1H-indol-2-yl)-1H-pyrrolo[2,3-b]pyridine]: the IC50 against human TLR7 is 100 to 1000 nM; on human TLR8, under 100 nM; at human TLR9, 100 to 1000 nM.

As to `CNCCN1CCC(c2ccc3[nH]c(-c4ccc5c(c4)CCO5)c(C)c3c2)CC1` [Example 669, 2-(4-(2-(2,3-dihydrobenzofuran-5-yl)-3-methyl-1H-indol-5-yl)piperidin-1-yl)-N-methylethan-1-amine], the half-maximal inhibitory concentration (IC50) against human TLR7 was in the range of 1000 to 50000 nM; against human TLR8, 100 to 1000 nM; on human TLR9 it was 1000 to 50000 nM.

For the compound `Cc1cc(-c2[nH]c3ccc(C4CCN(C(=O)CN(C)C)CC4)cc3c2C(C)C)cn2cc(C(=O)N(C)CCO)nc12` [Example 494, 6-(5-(1-(dimethylglycyl)piperidin-4-yl)-3-isopropyl-1H-indol-2-yl)-N-(2-hydroxyethyl)-N,8-dimethylimidazo[1,2-a]pyridine-2-carboxamide], the half-maximal inhibitory concentration (IC50) was under 100 nM against human TLR7, under 100 nM against human TLR8 and 1000 to 50000 nM against human TLR9.

Turning to `COc1cc(-c2[nH]c3ccc(C4CCN(CC(=O)N(C)C)CC4)cc3c2C(C)C)cn2ccnc12` [Example 433, 2-(4-(3-isopropyl-2-(8-methoxyimidazo[1,2-a]pyridin-6-yl)-1H-indol-5-yl)piperidin-1-yl)-N,N-dimethylacetamide], the IC50 against human TLR7 is under 100 nM; on human TLR8, under 100 nM; against human TLR9, 100 to 1000 nM.

In the case of `Cc1cc(-c2[nH]c3ccc(C4CCN(C5COC5)CC4)cc3c2C(C)C)cc2[nH]c(=O)oc12` [Example 708, 5-(3-isopropyl-5-(1-(oxetan-3-yl)piperidin-4-yl)-1H-indol-2-yl)-7-methylbenzo[d]oxazol-2(3H)-one], the IC50 at human TLR7 is 100 to 1000 nM; against human TLR8, 100 to 1000 nM; on human TLR9, 1000 to 50000 nM.

With `CC(C)c1c(-c2ccnc3c2ncn3C)[nH]c2ccc(C3CCNCC3)cc12` [Example 44, 7-(3-isopropyl-5-(piperidin-4-yl)-1H-indol-2-yl)-3-methyl-3H-imidazo[4,5-b]pyridine], the IC50 against human TLR7, at human TLR8 and against human TLR9 was 1000 to 50000 nM throughout.

Consider `Cc1cn2cc(-c3[nH]c4ccc(C5CCNCC5)cc4c3C(C)C)cnc2n1` [Example 159, 6-(3-isopropyl-5-(piperidin-4-yl)-1H-indol-2-yl)-2-methylimidazo[1,2-a]pyrimidine], for which the values for the IC50 against human TLR7, against human TLR8 and against human TLR9 were under 100 nM, 1000 to 50000 nM and 100 to 1000 nM, respectively.

Regarding `CC(C)c1c(-c2ccnc3[nH]ncc23)[nH]c2ccc(C3CCN(Cc4ncc[nH]4)CC3)cc12` [Example 914, 4-(5-(1-((1H-imidazol-2-yl)methyl)piperidin-4-yl)-3-isopropyl-1H-indol-2-yl)-1H-pyrazolo[3,4-b]pyridine], the IC50 on human TLR7 was under 100 nM; at human TLR8, under 100 nM; against human TLR9 it was 1000 to 50000 nM.

On to `CC(C)c1c(-c2ccn3ccnc3c2)[nH]c2ccc(C3CCNCC3)cc12` [Example 203, 7-(3-isopropyl-5-(piperidin-4-yl)-1H-indol-2-yl)imidazo[1,2-a]pyridine], for which the half-maximal inhibitory concentration (IC50) on human TLR7 is under 100 nM; against human TLR8 it was under 100 nM; on human TLR9, 100 to 1000 nM.
